In brackets after ≈: the same amount, converted by molar mass. Several values for one entry are separate records, joined by “and”; a condition that tells them apart may be missing. Identical values can stand only once. Like-named read-outs stand apart in the source and are kept apart here.
What was measured:
[1] = Phase solubility study of Compound I with HP-β-CD and L-lysine; assay type: physicochemical; conditions: for solubility at 7 days: 25 °C, thermodynamic from solid
Procedure: Solubility studies were performed as described by Higuchi, T., and Connors, K. A., Advances in Analytical Chemistry and Instrumentation 4 (1965) 117-212. Excess amounts of Compound I were added to increasing concentrations of HP-β-CD (0-200 mM) in 5 ml dissolution media, either purified water or L-lysine solutions (50 mM or 500 mM). The glass containers were sealed and the suspensions were shaken in a water-bath at 25° C. until complexation equilibrium was reached (7 days). An aliquot was filtered through a 0.45 μm PVDF membrane filter and assayed for Compound I content by a validated liquid chromatography (LC) method.

[2] = system: allergen-induced airway inflammation; assay: Mouse model of asthma (OVA), intraperitoneal injection of Compound I; assay type: in vivo, mice; conditions: 3.75 to 30 mg/kg
Procedure: In order to study the modulation of airway inflammation by intraperitoneal injection of Compound I, mice were sensitized with 10 μg ovalbumin alumin-adsorbed (aluminject, perbio, Erembodegem, Belgium) injected intraperitonealy at days 0 and 7 and were subsequently exposed to OVA 1% or PBS aerosols for 30 minutes from day 21 to 24. Intraperitoneal injections were performed 30 min before OVA inhalations. The different injected formulations were: cremophor 10%-DMSO 10%-PBS 80%- Compound I30 mg/kg (suspension); cremophor 10%-DMSO 10%-PBS 80%- Compound I3.75 mg/kg (solution); HPβCD 200 mM Compound I 7.5 mg/kg (solution); HPβCD 200 mM. […]
Twenty-four hours after the last allergen exposure, the bronchial hyper responsiveness was determined by measuring the Penh using a barometric plethysmograph as proposed by Hamelmann, E., et al., Am. […] The Penh was measured at baseline and 5 min after the inhalation of increasing doses (25, 50, 75 and 100 mM) of methacholine (Mch).
(§1) Immediately after the assessment of airway responsiveness, mice were sacrificed and 1 ml of PBS free of ionised calcium and magnesium but supplemented with 0.05 mM sodium EDTA was instilled 4 times via a tracheal cannula and recovered by gentle manual aspiration. […] A value from 0 to 3 per criteria was adjudged to each tissue section scored. […]

[3] = system: allergen-induced airway inflammation and bronchial hyperresponsiveness; assay: Mouse model of asthma (OVA), inhalation, short exposure challenge; assay type: in vivo, mice; conditions: inhalation of 40 mg/ml solution in pure DMSO, short-term exposure, vs DMSO alone
Procedure: In order to study the modulation of airway inflammation by intraperitoneal injection of Compound I, mice were sensitized with 10 μg ovalbumin alumin-adsorbed (aluminject, perbio, Erembodegem, Belgium) injected intraperitonealy at days 0 and 7 and were subsequently exposed to OVA 1% or PBS aerosols for 30 minutes from day 21 to 24. Intraperitoneal injections were performed 30 min before OVA inhalations. The different injected formulations were: cremophor 10%-DMSO 10%-PBS 80%- Compound I30 mg/kg (suspension); cremophor 10%-DMSO 10%-PBS 80%- Compound I3.75 mg/kg (solution); HPβCD 200 mM Compound I 7.5 mg/kg (solution); HPβCD 200 mM. All results were compared to mice sensitized and exposed to PBS and OVA treated with PBS injected intraperitonealy. In order to study the modulation of airway inflammation by inhaled Compound I, mice were sensitized as described previously. Two protocols referred to as short exposure challenge and long-term exposure challenge were used. In the short exposure challenge, mice were exposed to aerosols of Compound I-complex at concentrations of 0.03 and 0.3 mg/ml of active compound in aqueous solution of from day 21 to 27 during 30 min in a Plexiglas exposure chamber (30×20×15 cm). Mice were exposed to OVA aerosols 30 minutes after the Compound I inhalation from day 23 to 27. In the so called long-term inhalation challenge, mice were exposed to aerosols of Compound Iat concentrations of 0.03 and 0.3 mg/ml complexed with HPβCD in an aqueous solution during 30 min five days odd weeks and to OVA aerosols 3 days odd weeks for 11 weeks. No inhalations were performed during even weeks.
The aerosol were produced by using an ultrasonic nebuliser SYSTAM (Systeme Assistance Medical, Le Ledat, France), the vibration frequency of which is 2.4 MHz with variable vibration intensity and ventilation levels. Vibration intensity was fixed in position 6 and the ventilation level was 25(ν1/2)1/min.
Twenty-four hours after the last allergen exposure, the bronchial hyper responsiveness was determined by measuring the Penh using a barometric plethysmograph as proposed by Hamelmann, E., et al., Am. J Respir. Crit. Care Med. 156 (1997) 766-775). The Penh was measured at baseline and 5 min after the inhalation of increasing doses (25, 50, 75 and 100 mM) of methacholine (Mch).
as §1, with “aspiration. The recovered bronchoalveolar lavage fluid (BAL) was centrifuged (1800 rpm for 10 min at 4° C.).” for “aspiration.”

## O=C1NC(=O)C(c2ccc(-c3ccccc3)cc2)(N2CCN(c3ccc([N+](=O)[O-])cc3)CC2)C(=O)N1 [Compound I, 5-Biphenyl-4-yl-5-[4-(4-nitro-phenyl)-piperazin-1-yl]pyrimidine-2,4,6-trione]
[1]; 50 mM L-lysine solution with 200 mM HP-β-CD, aqueous with cosolvent or surfactant or cyclodextrin, L-lysine 50 mM, 25° C., read-out: Solubility with HP-β-CD (200 mM)
  solubility at 7 days: 17100 µg/mL (≈ 35.2 mM)
[1]; 50 mM L-lysine solution, no cyclodextrin, aqueous buffer, L-lysine 50 mM, 25° C., read-out: Solubility without CD
  solubility at 7 days: 50 µg/mL (≈ 0.103 mM)
[1]; 200 mM HP-β-CD in purified water, aqueous with cosolvent or surfactant or cyclodextrin, purified water, 25° C., read-out: Solubility with HP-β-CD (200 mM)
  solubility at 7 days: 5530 µg/mL (≈ 11.4 mM)
[1]; 200 mM HP-β-CD in purified water, no L-lysine, aqueous with cosolvent or surfactant or cyclodextrin, solubility in a 200 mM HP-β-CD solution, absence of L-lysine
  solubility at 7 days: ~5500 µg/mL and ~11000 µM
[1]; 200 mM HP-β-CD, no L-lysine, vs purified water
  increase of aqueous solubility: approximately 10,000 fold
[1]; 500 mM L-lysine solution with 200 mM HP-β-CD, aqueous with cosolvent or surfactant or cyclodextrin, 500 mM L-lysine and 200 mM HP-β-CD, read-out: solubility
  solubility at 7 days: 38100 µg/mL (≈ 78.6 mM)
[1]; 500 mM L-lysine solution with 200 mM HP-β-CD, aqueous with cosolvent or surfactant or cyclodextrin, L-lysine 500 mM, 25° C., read-out: Solubility with HP-β-CD (200 mM)
  solubility at 7 days: 38100 µg/mL (≈ 78.6 mM)
[1]; 500 mM L-lysine solution, no cyclodextrin, aqueous buffer, L-lysine 500 mM, 25° C., read-out: Solubility without CD
  solubility at 7 days: 90 µg/mL (≈ 0.185 mM)
[1]; 500 mM L-lysine solution, no cyclodextrin, aqueous buffer, L-lysine (500 mM) separately, no CD, read-out: solubility
  solubility at 7 days: 90 µg/mL (≈ 0.185 mM)
[1]; 500 mM of L-lysine and 200 mM of HP-β-CD
  increase of aqueous solubility: 70,000 fold
[1]; purified water, no cyclodextrin, water, purified water, 25° C., read-out: Solubility without CD
  solubility at 7 days: 0.56 µg/mL (≈ 0.00115 mM)
[2]; equal efficacy of all tested formulations
  peribronchial inflammation scores: significantly lowered
[2]; solution or precipitate, vs placebo
  allergen-induced airway eosinophilic inflammation in BAL: lowered
[3]; p<0.005
  BAL eosinophils: significant decrease
[3]; p<0.01
  peribronchial inflammation scores: significant decrease
[3]; p<0.05
  bronchial hyperresponsiveness: significant decrease

— US20070225253A1, “Use of a trioxopyrimidine for the treatment and prevention of bronchial inflammatory diseases” (priority 2004, published 2007)
